# According to ChEMBL document CHEMBL3046807, “Synthesis and anti-inflammatory evaluation of some new 3,6-disubstituted-1,2,4-triazolo-[3,4-b]-1,3,4-thiadiazoles bearing pyrazole moiety” (2012):
# Test system: Rattus norvegicus
# Test: Anti-inflammatory activity in Rattus norvegicus Wistar (rat) assessed as inhibition of carrageenan-induced paw edema at 20 mg/kg, ip administered 30 min post carrageenan-challenge measured after 2.5 hr relative to control
# Type: functional
# Conditions: route intraperitoneal
row,Compound,inhibition in vivo at 20 mg/kg
1,CCc1nnc2sc(-c3c[nH]nc3-c3ccccc3)nn12,29.4%
2,CCc1nnc2sc(-c3c[nH]nc3-c3ccc(F)cc3)nn12,23.5%
3,CCc1nnc2sc(-c3c[nH]nc3-c3ccc(OC)cc3)nn12,17.6%
4,CCc1nnc2sc(-c3c[nH]nc3-c3ccc(Cl)cc3)nn12,56.9%
5,CCCc1nnc2sc(-c3c[nH]nc3-c3ccccc3)nn12,56.9%
6,CCCc1nnc2sc(-c3c[nH]nc3-c3ccc(F)cc3)nn12,12%
7,CCCc1nnc2sc(-c3c[nH]nc3-c3ccc(OC)cc3)nn12,13.5%
8,CCCc1nnc2sc(-c3c[nH]nc3-c3ccc(Cl)cc3)nn12,64.7%
9,CCc1nnc2sc(-c3c[nH]nc3-c3ccc(Cl)cc3Cl)nn12,25.5%
10,CCCc1nnc2sc(-c3c[nH]nc3-c3ccc(Cl)cc3Cl)nn12,23.5%

# Test system: Rattus norvegicus
# Test: Anti-inflammatory activity in Rattus norvegicus Wistar (rat) assessed as inhibition of carrageenan-induced paw edema at 10 mg/kg, ip administered 30 min post carrageenan-challenge measured after 2.5 hr relative to control
# Type: functional
# Conditions: route intraperitoneal
row,Compound,inhibition in vivo at 10 mg/kg
1,O=C(O)Cc1ccccc1Nc1c(Cl)cccc1Cl [DICLOFENAC SODIUM],80.4%
